Here are results for 21 compounds from patent publication US9133129B2, “Bicyclic compound” (TAKEDA PHARMACEUTICAL COMPANY LIMITED, priority 2011, dated 2015).

For orientation: melting point means the temperature of the solid-liquid transition.

The target in the first data set is T1, human ACC2 (Homo sapiens, UniProt O00763).
T1 construct: made in house; host or cells: SF-9 insect cells, recombinant baculovirus BAC-ACC2 (Nd)
T1 sequence (O00763 117-2458 limits assumed): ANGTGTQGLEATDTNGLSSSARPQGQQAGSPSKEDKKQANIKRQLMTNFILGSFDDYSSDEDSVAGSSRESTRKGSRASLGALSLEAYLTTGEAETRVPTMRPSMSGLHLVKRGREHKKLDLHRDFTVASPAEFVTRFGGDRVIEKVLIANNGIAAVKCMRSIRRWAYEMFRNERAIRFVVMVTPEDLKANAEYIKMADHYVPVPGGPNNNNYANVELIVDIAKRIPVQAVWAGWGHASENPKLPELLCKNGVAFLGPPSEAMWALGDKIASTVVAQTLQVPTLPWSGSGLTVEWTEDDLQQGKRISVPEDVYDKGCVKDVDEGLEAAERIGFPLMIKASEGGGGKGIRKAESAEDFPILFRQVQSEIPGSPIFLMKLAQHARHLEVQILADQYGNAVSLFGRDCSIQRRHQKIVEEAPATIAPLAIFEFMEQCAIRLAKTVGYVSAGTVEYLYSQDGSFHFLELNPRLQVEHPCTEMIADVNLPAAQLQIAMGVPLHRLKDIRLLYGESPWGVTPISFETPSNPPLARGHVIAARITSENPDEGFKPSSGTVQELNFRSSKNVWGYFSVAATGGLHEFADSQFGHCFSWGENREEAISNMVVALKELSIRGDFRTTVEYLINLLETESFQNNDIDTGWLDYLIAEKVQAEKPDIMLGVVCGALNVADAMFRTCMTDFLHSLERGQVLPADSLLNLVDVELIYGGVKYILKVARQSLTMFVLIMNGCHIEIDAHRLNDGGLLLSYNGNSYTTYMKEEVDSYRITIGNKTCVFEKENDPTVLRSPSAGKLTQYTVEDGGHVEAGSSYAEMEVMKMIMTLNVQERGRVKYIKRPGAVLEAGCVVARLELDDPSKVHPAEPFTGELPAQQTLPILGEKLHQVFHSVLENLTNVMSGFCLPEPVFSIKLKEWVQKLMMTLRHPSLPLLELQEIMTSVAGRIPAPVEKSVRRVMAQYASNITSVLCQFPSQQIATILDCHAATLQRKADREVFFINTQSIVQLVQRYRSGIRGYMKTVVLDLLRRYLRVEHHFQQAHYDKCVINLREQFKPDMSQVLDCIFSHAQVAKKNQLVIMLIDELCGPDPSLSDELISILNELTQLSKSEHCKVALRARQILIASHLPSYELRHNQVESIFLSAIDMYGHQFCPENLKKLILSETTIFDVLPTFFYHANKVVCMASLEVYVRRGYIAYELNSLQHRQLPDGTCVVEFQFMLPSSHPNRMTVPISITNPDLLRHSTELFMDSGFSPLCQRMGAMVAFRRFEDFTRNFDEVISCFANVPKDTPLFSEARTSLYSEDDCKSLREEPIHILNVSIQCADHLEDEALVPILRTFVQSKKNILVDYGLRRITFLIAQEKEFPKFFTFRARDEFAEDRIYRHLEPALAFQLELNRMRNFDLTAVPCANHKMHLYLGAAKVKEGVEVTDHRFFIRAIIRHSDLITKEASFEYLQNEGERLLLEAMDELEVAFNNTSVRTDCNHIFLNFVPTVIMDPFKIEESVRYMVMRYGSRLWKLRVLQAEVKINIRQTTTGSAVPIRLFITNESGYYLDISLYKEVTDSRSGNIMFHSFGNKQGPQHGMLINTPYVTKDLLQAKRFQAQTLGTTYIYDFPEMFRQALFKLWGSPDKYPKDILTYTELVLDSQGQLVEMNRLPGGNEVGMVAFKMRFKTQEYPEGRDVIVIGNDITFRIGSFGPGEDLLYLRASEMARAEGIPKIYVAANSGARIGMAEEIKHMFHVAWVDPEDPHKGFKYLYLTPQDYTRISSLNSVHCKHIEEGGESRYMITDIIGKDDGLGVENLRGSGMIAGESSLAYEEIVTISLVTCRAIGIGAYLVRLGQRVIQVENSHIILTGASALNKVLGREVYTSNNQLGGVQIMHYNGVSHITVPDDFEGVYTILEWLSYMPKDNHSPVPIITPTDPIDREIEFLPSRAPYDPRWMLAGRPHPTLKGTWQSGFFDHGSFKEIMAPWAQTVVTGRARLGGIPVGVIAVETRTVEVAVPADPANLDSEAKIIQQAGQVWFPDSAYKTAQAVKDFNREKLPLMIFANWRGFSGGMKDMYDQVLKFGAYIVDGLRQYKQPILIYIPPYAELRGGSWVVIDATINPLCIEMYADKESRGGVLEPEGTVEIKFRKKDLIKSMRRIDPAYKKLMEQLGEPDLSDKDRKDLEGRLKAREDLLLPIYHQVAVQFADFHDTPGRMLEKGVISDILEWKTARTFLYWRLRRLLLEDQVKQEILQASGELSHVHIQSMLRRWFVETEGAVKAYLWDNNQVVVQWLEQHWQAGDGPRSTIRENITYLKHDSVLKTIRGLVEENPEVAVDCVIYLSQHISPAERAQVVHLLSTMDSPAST
Nature of the data set: ACC2 inhibitory activity, malachite green assay with recombinant ACC2 (Nd). It is filed as biochemical. The settings on record: 1 μM of the test compound; read-out: ACC2 inhibitory rates (%) at 1 μM. The method, then: The ACC2 inhibitory action of the compound of the present invention was evaluated by the following method.
(1) Cloning of Human ACC2 Gene and Preparation of Recombinant Baculovirus
Human ACC2 gene was cloned by PCR using a human skeletal muscle cDNA library (Clontech) as a template and Primer 1 and Primer 2 shown below. Primer 1 and Primer 2 were prepared by adding SalI, XbaI restriction enzyme recognition sequences based on the information of the base sequence of human ACC2 gene (Genbank Accession U89344).
PCR was performed using Pyrobest DNA polymerase (TAKARA BIO INC.). The obtained PCR product was cloned to pT7 Blue vector (Novagen) and after confirmation of the base sequence, digested with restriction enzymes SalI and XbaI. The obtained DNA fragment was inserted into pFAST-BacHTa (Invitrogen) digested with restriction enzymes SalI and XbaI to give expression plasmid ACC2/pFAST-BacHTa.
A plasmid for expression of ACC2 without a mitochondrial targeting sequence was prepared by PCR using the expression plasmid as a template, and Primer 3 (SalI restriction enzyme recognition sequence was added) and Primer 4, which are prepared by reference to the information of human ACC2 gene base sequence (Genbank Accession U89344).
PCR was performed using Pyrobest-DNA polymerase (TAKARA BIO INC.). The obtained PCR product was cloned to pT7 Blue vector (Novagen) and after confirmation of the base sequence, digested with restriction enzymes SalI and AflII. The obtained DNA fragment was inserted into ACC2/pFAST-BacHTa digested with restriction enzymes SalI and AflII to give expression plasmid ACC2mito7/pFAST-BacHTa.
Using the expression plasmid ACC2mito7/pFAST-BacHTa and BAC-TO-BAC Baculovirus Expression System (Invitrogen), virus stock BAC-ACC2 of recombinant Baculovirus (N terminal deleted (hereinafter Nd)) was prepared.
(2) Preparation of ACC2 (Nd) Protein
SF-9 cells (Invitrogen) were inoculated to a medium (10 L) for insect cells (Sf-900IISFM medium (Invitrogen) containing 5% fetal bovine serum (Trace), 50 mg/L Gentamicin (Wako), 0.1% Pluronic F-68 (Invitrogen)) at 1.0×10^6 cells/mL, and cultured with shaking in Wave Bioreactor (GE Health Care) at 27° C., 20 rpm, rocking angle 10°, oxygen concentration 30%.
On day 2 of the culture, recombinant Baculovirus BAC-ACC2 (Nd) was added, and the cells were cultured for 3 days. The culture medium was centrifuged at 1000×g for 10 min to give virus-infected cells. The cells were washed with phosphate buffered saline (Invitrogen) and centrifuged under the same conditions. The obtained cells were cryopreserved at −80° C.
The cryopreserved cells were thawed in ice and suspended in 900 mL of 25 mM HEPES buffer (pH 7.5) containing 10% Glycerol, 0.3 M NaCl, 1 mM EDTA, 25 mM Sodium β-Glycerophosphate and 1 mM Sodium Orthovanadate, and supplemented with Complete Protease Inhibitor (Roche). The obtained suspension was homogenized three times in a polytron homogenizer (Kinematica) at 20,000 rpm for 30 sec. The obtained cell disruption solution was clarified by centrifugation at 186000×g for 60 min. To the supernatant was added 5 mL of AF-chelate 650M Ni chelated carrier (TOSOH), and the mixture was rotated at 4° C. for 1 hr, and centrifuged at 1000×g for 5 min, and the carrier was transferred to opened column. The column was washed with 50 mL of buffer A (50 mM HEPES (pH 7.5) containing 0.3 M NaCl), further washed with buffer A containing 20 mM Imidazole, and eluted with buffer A containing 250 mM Imidazole. The eluate was concentrated with Amicon Ultra 15 (Millipore) with a molecular weight cut off of 50K. The obtained concentrate was filtered using gelfiltration column (HiLoad 26/60 Superdex200 prep grade) (GE Health Care) with 50 mM HEPES buffer (pH 7.5) containing 10 mM MgCl2, 2 mM Dithiothreitol, 10 mM Tripotassium Citrate and 0.3 M NaCl to give ACC2 (Nd). The obtained ACC2 (Nd) was cryopreserved at −80° C.
(3) Measurement of ACC2 Inhibitory Activity […]
In the case of `COc1cc(-c2nc3cnc(OC[C@H](C)NC(C)=O)cc3o2)cc(F)c1OCC1CC1` [Example 62, N-((2S)-1-((2-(4-(cyclopropylmethoxy)-3-fluoro-5-methoxyphenyl) [1,3]oxazolo[4,5-c]pyridin-6-yl)oxy)propan-2-yl)acetamide], the inhibition at 1 µM was found to be 90%. Consider `CC(=O)N[C@@H](C)COc1cc2oc(-c3ccc(OC[C@H]4CC4(F)F)c(F)c3)nc2cn1` [Example 69, N-((2S)-1-((2-(4-(((1R)-2,2-difluorocyclopropyl)methoxy)-3-fluorophenyl) [1,3]oxazolo[4,5-c]pyridin-6-yl)oxy)propan-2-yl)acetamide], for which the inhibition at 1 µM was determined as 98%.

The data set is the same for the next values; noted with them: 10 μM of the test compound; 10 µM.
`CC(=O)N[C@@H](C)COc1cc2oc(-c3cc(F)c(OCC4CC4(F)F)c(F)c3)nc2cn1` (stereo partly drawn) [Example 86, N-((2S)-1-((2-(4-((2,2-difluorocyclopropyl)methoxy)-3,5-difluorophenyl)[1,3]oxazolo[4,5-c]pyridin-6-yl)oxy)propan-2-yl)acetamide]: the “ACC2 inhibitory rates (%) at 10 μM” value was found to be 89%. Same read-out and setting: as for `CC(=O)NC(C)COC1CCc2oc(-c3ccc(OCC4CC4)c(F)c3)nc2C1` (centres unmarked) [Example 51d, N-(1-((2-(4-(cyclopropylmethoxy)-3-fluorophenyl)-4,5,6,7-tetrahydro-1,3-benzoxazol-5-yl)oxy)propan-2-yl)acetamide], the figure is 95%.

The data set is the same for the next values; noted with them: 10 μM of the test compound; read-out: ACC2 inhibitory rates (%) at 10 μM.
For the compound `CC(=O)N[C@@H](C)COc1ccc2nc(-c3ccc(OCC4CC4)c(F)c3)oc2c1F` [Example 37, N-((2S)-1-((2-(4-(cyclopropylmethoxy)-3-fluorophenyl)-7-fluoro-1,3-benzoxazol-6-yl)oxy)propan-2-yl)acetamide], the inhibition at 10 µM is 90%.

Regarding `CC(=O)N[C@@H](C)COc1cc2oc(-c3ncc(OCC4CC4)cc3C)nc2cn1` [Example 120, N-((2S)-1-((2-(5-(cyclopropylmethoxy)-3-methylpyridin-2-yl)[1,3]oxazolo[4,5-c]pyridin-6-yl)oxy)propan-2-yl)acetamide], the inhibition at 10 µM is 96%.

Consider `CC(=O)N[C@@H](C)COc1cc(F)c2nc(-c3ccc(OCC4CC4)c(F)c3)oc2c1` [Example 43, N-((2S)-1-((2-(4-(cyclopropylmethoxy)-3-fluorophenyl)-4-fluoro-1,3-benzoxazol-6-yl)oxy)propan-2-yl)acetamide], for which the inhibition at 10 µM is 92%. The same measure, in the same setting: under `CC(=O)N[C@@H](C)COc1cc2oc(-c3ncc(OC[C@H]4CC4(F)F)cc3Cl)nc2cn1` [Example 163, N-((2S)-1-((2-(3-chloro-5-(((1R)-2,2-difluorocyclopropyl)methoxy)pyridin-2-yl)[1,3]oxazolo[4,5-c]pyridin-6-yl)oxy)propan-2-yl)acetamide] stands 93%; under `CC(=O)N[C@@H](C)COc1cc2oc(-c3cnc(OCC4CC4)cc3C)nc2cn1` [Example 122, N-((2S)-1-((2-(6-(cyclopropylmethoxy)-4-methylpyridin-3-yl)[1,3]oxazolo[4,5-c]pyridin-6-yl)oxy)propan-2-yl)acetamide], 84%.

Consider `CC(=O)N[C@@H](C)COc1cc2oc(-c3ccc(OCC4CC4)cc3C)nc2cn1` [Example 117, N-((2S)-1-((2-(4-(cyclopropylmethoxy)-2-methylphenyl)[1,3]oxazolo[4,5-c]pyridin-6-yl)oxy)propan-2-yl)acetamide], for which the inhibition at 10 µM was 101%. Still for that read-out and setting: under `CC(=O)N[C@@H](C)COc1cc2oc(-c3ccc(OCC4CC4(F)F)c(F)c3)nc2cn1` (stereo partly drawn) [Example 49, N-((2S)-1-((2-(4-((2,2-difluorocyclopropyl)methoxy)-3-fluorophenyl)[1,3]oxazolo[4,5-c]pyridin-6-yl)oxy)propan-2-yl)acetamide] stands 94%. The same measure, in the same setting: under `CC(=O)N[C@@H](C)COc1ncc2nc(-c3cc(F)c(OC[C@H]4CC4(F)F)c(F)c3)oc2n1` [Example 167, N-((2S)-1-((2-(4-(((1R)-2,2-difluorocyclopropyl)methoxy)-3,5-difluorophenyl)[1,3]oxazolo[5,4-d]pyrimidin-5-yl)oxy)propan-2-yl)acetamide] stands 81%.

Regarding `CC(=O)N[C@@H](C)COc1ccc2nc(-c3ccc(OCC4CC4(F)F)c(F)c3)oc2c1F` (stereo partly drawn) [Example 80, N-((2S)-1-((2-(4-((2,2-difluorocyclopropyl)methoxy)-3-fluorophenyl)-7-fluoro-1,3-benzoxazol-6-yl)oxy)propan-2-yl)acetamide], the inhibition at 10 µM was 89%. Same read-out and setting: as for `CC(=O)N[C@@H](C)COc1ncc2nc(-c3ccc(OCC4CC4(F)F)cc3)oc2n1` (stereo partly drawn) [Example 136, N-((2S)-1-((2-(4-((2,2-difluorocyclopropyl)methoxy)phenyl) [1,3]oxazolo[5,4-d]pyrimidin-5-yl)oxy)propan-2-yl)acetamide], the figure is 84%; as for `CC(=O)N[C@@H](C)COc1cc2oc(-c3ccc(OCC4(C)CC4(F)F)c(F)c3)nc2cn1` (stereo partly drawn) [Example 159, N-((2S)-1-((2-(4-((2,2-difluoro-1-methylcyclopropyl)methoxy)-3-fluorophenyl)[1,3]oxazolo[4,5-c]pyridin-6-yl)oxy)propan-2-yl)acetamide], 80%; as for `CC(=O)N[C@@H](C)COc1cc2oc(-c3cnc(OCC4CC4)c(Cl)c3)nc2cn1` [Example 35, N-((2S)-1-((2-(5-chloro-6-(cyclopropylmethoxy)pyridin-3-yl)[1,3]oxazolo[4,5-c]pyridin-6-yl)oxy)propan-2-yl)acetamide], 83%. On the same count and under the same terms, as for `C[C@@H](COc1ccc2nc(-c3ccc(OCC4CC4)c(F)c3)oc2c1)NC(=O)N(C)C` [Example 10, 3-((2S)-1-((2-(4-(cyclopropylmethoxy)-3-fluorophenyl)-1,3-benzoxazol-6-yl)oxy)propan-2-yl)-1,1-dimethylurea], the figure is 91%; as for `CC(=O)NC(C)COC1CCc2oc(-c3ccc(OCC4CC4)c(F)c3)nc2C1` (centres unmarked) [Example 51c, N-(1-((2-(4-(cyclopropylmethoxy)-3-fluorophenyl)-4,5,6,7-tetrahydro-1,3-benzoxazol-5-yl)oxy)propan-2-yl)acetamide], 84%; as for `CC(=O)N[C@@H](C)COc1cc2oc(-c3cc(F)c(OCC4CC4(F)F)c(F)c3)nc2cn1` (stereo partly drawn) [Example 131, N-((2S)-1-((2-(4-((2,2-difluorocyclopropyl)methoxy)-3,5-difluorophenyl)[1,3]oxazolo[4,5-c]pyridin-6-yl)oxy)propan-2-yl)acetamide], 96%.

On to `CC(=O)N[C@@H](C)COc1cc2oc(-c3cc(F)c(OCC4CC4)c(F)c3)nc2cn1` [Example 47, N-((2S)-1-((2-(4-(cyclopropylmethoxy)-3,5-difluorophenyl)[1,3]oxazolo[4,5-c]pyridin-6-yl)oxy)propan-2-yl)acetamide], for which the inhibition at 10 µM stood at 91%.

System in the next data set: not given
Test: not given
Conditions: not given
`CC(=O)N[C@@H](C)COc1ccc2nc(-c3ccc(OCC4CC4)c(F)c3)oc2c1F` [Example 37, N-((2S)-1-((2-(4-(cyclopropylmethoxy)-3-fluorophenyl)-7-fluoro-1,3-benzoxazol-6-yl)oxy)propan-2-yl)acetamide] came in with a melting point of 163 to 164 °C.

On to `COc1cc(-c2nc3cnc(OC[C@H](C)NC(C)=O)cc3o2)cc(F)c1OCC1CC1` [Example 62, N-((2S)-1-((2-(4-(cyclopropylmethoxy)-3-fluoro-5-methoxyphenyl) [1,3]oxazolo[4,5-c]pyridin-6-yl)oxy)propan-2-yl)acetamide], for which the melting point was 162.9 to 163 °C. Still for that read-out and setting: under `CC(=O)N[C@@H](C)COc1ccc2nc(-c3ccc(OCC4CC4)c(Cl)c3)oc2c1` [Example 29, N-((2S)-1-((2-(3-chloro-4-(cyclopropylmethoxy)phenyl)-1,3-benzoxazol-6-yl)oxy)propan-2-yl)acetamide] stands 156 to 159 °C.
